From ChEMBL document CHEMBL1201862, “PubChem BioAssay data set” (2004)
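Five compound concentrations were applied to cells in 96-well plates for 48 hours; endpoints were derived by simple linear interpolation of the resulting dose-response curve. Here, GI50 denotes the concentration required for 50% inhibition of growth.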 Activity calls are given as the source filed them. Rule as the data show it: active = GI50 up to about 1.1 µM and inactive = higher.

What was measured:
Assay in all cases: growth of human tumour cells (NCI), 48 h
MDA-N = tested on: MDA-N
NCI-H460 = tested on: NCI-H460
A498 = tested on: A498
KM12 = tested on: KM12
SK-OV-3 = tested on: SK-OV-3
UO-31 = tested on: UO-31
SF-268 = tested on: SF-268
TK-10 = tested on: TK-10
UACC-257 = tested on: UACC-257
HCC 2998 = tested on: HCC 2998
SNB-75 = tested on: SNB-75
U-251 = tested on: U-251
HT-29 = tested on: HT-29
OVCAR-3 = tested on: OVCAR-3
786-0 = tested on: 786-0
PC-3 = tested on: PC-3
IGROV-1 = tested on: IGROV-1
NCI-H522 = tested on: NCI-H522
MCF7 = tested on: MCF7
CAKI-1 = tested on: CAKI-1
NCI-H226 = tested on: NCI-H226
SNB-19 = tested on: SNB-19
MDA-MB-435 = tested on: MDA-MB-435
K562 = tested on: K562
Malme-3M = tested on: Malme-3M
SK-MEL-5 = tested on: SK-MEL-5
NCI-H23 = tested on: NCI-H23
COLO 205 = tested on: COLO 205
BT-549 = tested on: BT-549
MDA-MB-231 = tested on: MDA-MB-231
OVCAR-5 = tested on: OVCAR-5
NCI/ADR-RES = tested on: NCI/ADR-RES
LOX IMVI = tested on: LOX IMVI
RPMI-8226 = tested on: RPMI-8226
UACC-62 = tested on: UACC-62
HOP-92 = tested on: HOP-92
CCRF-CEM = tested on: CCRF-CEM
ACHN = tested on: ACHN
SN12C = tested on: SN12C
OVCAR-4 = tested on: OVCAR-4
SW-620 = tested on: SW-620
HCT-116 = tested on: HCT-116
OVCAR-8 = tested on: OVCAR-8
SF-539 = tested on: SF-539
T47D = tested on: T47D
HL-60 = tested on: HL-60
M14 = tested on: M14
HCT-15 = tested on: HCT-15
SK-MEL-28 = tested on: SK-MEL-28
EKVX = tested on: EKVX
DU-145 = tested on: DU-145
MOLT-4 = tested on: MOLT-4
A549 = tested on: A549
SK-MEL-2 = tested on: SK-MEL-2
Hs-578T = tested on: Hs-578T
HOP-62 = tested on: HOP-62
RXF 393 = tested on: RXF 393
SF-295 = tested on: SF-295

`Cc1occc1/C(S)=N\c1ccc(Cl)c(C(=O)OCC(F)(F)F)c1` was tested, and the GI50 (MDA-N) was 29 µM (inactive), the GI50 (NCI-H460) was 22.1 µM (inactive) and the GI50 (A498) was 15 µM (inactive). For the same compound, the GI50 (KM12) was 20.8 µM (inactive), the GI50 (SK-OV-3) was 22.3 µM (inactive) and the GI50 (UO-31) was 19.4 µM (inactive). The GI50 (SF-268) was 20.7 µM (inactive), the GI50 (TK-10) was 20.2 µM (inactive) and the GI50 (UACC-257) was 23.4 µM (inactive). For the same compound, the GI50 (HCC 2998) was 18.7 µM (inactive), the GI50 (SNB-75) was 24.1 µM (inactive) and the GI50 (U-251) was 19 µM (inactive). For the same compound, the GI50 (HT-29) was 17.5 µM (inactive), the GI50 (OVCAR-3) was 29.6 µM (inactive) and the GI50 (786-0) was 18.7 µM (inactive). The GI50 (PC-3) was 23.7 µM (inactive), the GI50 (IGROV-1) was 18.4 µM (inactive) and the GI50 (NCI-H522) was 20.4 µM (inactive). For the same compound, the GI50 (MCF7) was 12.2 µM (inactive), the GI50 (CAKI-1) was 14.7 µM (inactive) and the GI50 (NCI-H226) was 18.6 µM (inactive). The GI50 (SNB-19) was 20.3 µM (inactive), the GI50 (MDA-MB-435) was 20.3 µM (inactive) and the GI50 (K562) was 18.5 µM (inactive). For the same compound, the GI50 (Malme-3M) was 29.8 µM (inactive), the GI50 (SK-MEL-5) was 16.7 µM (inactive) and the GI50 (NCI-H23) was 19.7 µM (inactive). The GI50 (COLO 205) was 22.4 µM (inactive), the GI50 (BT-549) was 20.5 µM (inactive) and the GI50 (MDA-MB-231) was 18 µM (inactive). The GI50 (OVCAR-5) was 34.6 µM (inactive), the GI50 (NCI/ADR-RES) was 17.8 µM (inactive) and the GI50 (LOX IMVI) was 18.4 µM (inactive). For the same compound, the GI50 (RPMI-8226) was 19 µM (inactive), the GI50 (UACC-62) was 16.4 µM (inactive) and the GI50 (HOP-92) was 17.4 µM (inactive). The GI50 (CCRF-CEM) was 17.9 µM (inactive), the GI50 (ACHN) was 21.8 µM (inactive) and the GI50 (SN12C) was 18.8 µM (inactive). For the same compound, the GI50 (OVCAR-4) was 17.9 µM (inactive), the GI50 (SW-620) was 23.7 µM (inactive) and the GI50 (HCT-116) was 17.9 µM (inactive). The GI50 (OVCAR-8) was 16.7 µM (inactive), the GI50 (SF-539) was 4.31 µM (inactive) and the GI50 (T47D) was 26.5 µM (inactive). The GI50 (HL-60) was 24.4 µM (inactive), the GI50 (M14) was 33.7 µM (inactive) and the GI50 (HCT-15) was 19.6 µM. For the same compound, the GI50 (SK-MEL-28) was 21.5 µM (inactive), the GI50 (EKVX) was 25.5 µM (inactive) and the GI50 (DU-145) was 22.4 µM (inactive). The GI50 (MOLT-4) was 18.2 µM (inactive), the GI50 (A549) was 23.1 µM (inactive) and the GI50 (SK-MEL-2) was 22 µM (inactive). For the same compound, the GI50 (Hs-578T) was 35.6 µM (inactive).

In the case of `Cc1ccc(OCC2OC(n3cnc4nc(Nc5ccc(Cl)c(Cl)c5)nc(Cl)c43)CC2Oc2ccc(C)cc2)cc1` (configuration not stated), the GI50 (MDA-N) is reported as > 100 µM (inactive), the GI50 (NCI-H460) is reported as 27.2 µM (inactive) and the GI50 (HOP-62) is reported as > 100 µM (inactive). For the same compound, the GI50 (KM12) was > 100 µM (inactive), the GI50 (SK-OV-3) was > 100 µM (inactive) and the GI50 (UO-31) was > 100 µM (inactive). The GI50 (SF-268) was > 100 µM (inactive), the GI50 (TK-10) was > 100 µM (inactive) and the GI50 (UACC-257) was > 100 µM (inactive). For the same compound, the GI50 (RXF 393) was > 100 µM (inactive), the GI50 (HCC 2998) was > 100 µM (inactive) and the GI50 (SNB-75) was > 100 µM (inactive). For the same compound, the GI50 (U-251) was > 100 µM (inactive), the GI50 (HT-29) was > 100 µM (inactive) and the GI50 (OVCAR-3) was > 100 µM (inactive). For the same compound, the GI50 (786-0) was > 100 µM (inactive), the GI50 (PC-3) was > 100 µM (inactive) and the GI50 (IGROV-1) was 0.855 µM (active). For the same compound, the GI50 (MCF7) was > 100 µM (inactive), the GI50 (CAKI-1) was > 100 µM (inactive) and the GI50 (NCI-H226) was 46.9 µM (inactive). For the same compound, the GI50 (SNB-19) was > 100 µM (inactive), the GI50 (MDA-MB-435) was > 100 µM (inactive) and the GI50 (K562) was > 100 µM (inactive). The GI50 (Malme-3M) was > 100 µM (inactive), the GI50 (SK-MEL-5) was > 100 µM (inactive) and the GI50 (NCI-H23) was > 100 µM (inactive). The GI50 (COLO 205) was > 100 µM (inactive), the GI50 (BT-549) was > 100 µM (inactive) and the GI50 (MDA-MB-231) was > 100 µM (inactive). The GI50 (SF-295) was > 100 µM (inactive), the GI50 (OVCAR-5) was > 100 µM (inactive) and the GI50 (NCI/ADR-RES) was > 100 µM (inactive). The GI50 (RPMI-8226) was > 100 µM (inactive), the GI50 (UACC-62) was > 100 µM (inactive) and the GI50 (CCRF-CEM) was > 100 µM (inactive). The GI50 (ACHN) was > 100 µM (inactive), the GI50 (SN12C) was > 100 µM (inactive) and the GI50 (OVCAR-4) was > 100 µM (inactive). For the same compound, the GI50 (SW-620) was > 100 µM (inactive), the GI50 (HCT-116) was > 100 µM (inactive) and the GI50 (OVCAR-8) was > 100 µM (inactive). For the same compound, the GI50 (T47D) was > 100 µM (inactive), the GI50 (M14) was > 100 µM (inactive) and the GI50 (HCT-15) was greater than 100 µM. For the same compound, the GI50 (SK-MEL-28) was > 100 µM (inactive), the GI50 (EKVX) was 53.7 µM (inactive) and the GI50 (DU-145) was > 100 µM (inactive). The GI50 (MOLT-4) was > 100 µM (inactive), the GI50 (A549) was > 100 µM (inactive) and the GI50 (SK-MEL-2) was > 100 µM (inactive). The GI50 (Hs-578T) was > 100 µM (inactive).
